Data on 15 compounds can be found in patent publication US20250163104A1, “MACROCYCLIC IMMUNOMODULATORS” (priority 2021, published 2025).

The assay deals with T1, human PD-1 / PD-L1-Ig binding on Jurkat cell line over-expressing human PD-1 (Jurkat-PD-1) (Homo sapiens, UniProt Q15116).
T1 construct: expressed in transfected cells; host or cells: Jurkat
In words: Jurkat-PD-1 Cell Binding High-Content Screening Assay (CBA). Format: cell-based. The conditions noted are these: PE-labeled PD-L1-Ig 20 nM final. Summed up: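 Cell-bound PE-labeled PD-L1-Ig (20 nM final, 1 h) measured by high-content imaging after fixation and Hoechst 33342 counterstain. Compound was applied first for 2 h at 37° C. to Jurkat cells over-expressing human PD-1 in DMEM with 10% FCS.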

Setting [1] is: Jurkat-PD-1 cells, read-out: Jurkat HPD1_PDL1 IC50.

Read-outs that look alike come from different tables or passages of the source. Where a SMILES comes first, the peptide text is derived from it. Bridges are numbered along the chain shown (N, C = ends). [ ]: non-standard residue; d: D form. The star is where a group is joined. ξ: configuration not given here. Phe(3-CF3) = N[C@@H](Cc1cccc(C(F)(F)F)c1)C(=O)O; Ala(morpholin-4-yl) = N[C@@H](CN1CCOCC1)C(=O)O; Phe(4-COOH) = N[C@@H](Cc1ccc(C(=O)O)cc1)C(=O)O; Bip = N[C@@H](Cc1ccc(-c2ccccc2)cc1)C(=O)O; Phe(4-CN) = N#Cc1ccc(C[C@H](N)C(=O)O)cc1; Phe(3-Me) = Cc1cccc(C[C@H](N)C(=O)O)c1; Val(3-OH) = CC(C)(O)[C@H](N)C(=O)O; 4Pal = N[C@@H](Cc1ccncc1)C(=O)O; Cha = N[C@@H](CC1CCCCC1)C(=O)O; Thr(3ξ) = CC(O)[C@H](N)C(=O)O; dDab = NCC[C@@H](N)C(=O)O; Carboxymethyl = O=C(O)C*; Nle = CCCC[C@H](N)C(=O)O; Orn = NCCC[C@H](N)C(=O)O; dDap = NC[C@@H](N)C(=O)O; Dab = NCC[C@H](N)C(=O)O; Dap = NC[C@H](N)C(=O)O

T1 sequence (Q15116 25-288): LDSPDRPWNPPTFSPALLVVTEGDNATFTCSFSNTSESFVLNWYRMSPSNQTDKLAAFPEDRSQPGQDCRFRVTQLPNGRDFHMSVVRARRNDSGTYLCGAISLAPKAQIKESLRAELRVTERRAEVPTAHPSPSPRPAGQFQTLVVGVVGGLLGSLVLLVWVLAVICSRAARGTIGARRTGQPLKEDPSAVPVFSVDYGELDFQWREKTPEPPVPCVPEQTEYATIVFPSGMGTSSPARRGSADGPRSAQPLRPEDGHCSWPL

Broadly, the IC50 is the concentration at which inhibition is half-maximal. Regarding `CC[C@H](C)[C@@H]1NC(=O)[C@H](Cc2ccc(-c3ccccc3)cc2)NC(=O)[C@H](C(C)C)NC(=O)[C@H](Cc2c[nH]c3ccccc23)NC(=O)[C@H](CC(=O)O)NC(=O)[C@H](Cc2ccc(OCC(=O)O)cc2)NC(=O)[C@H](Cc2ccncc2)NC(=O)CSC[C@@H](C(=O)N[C@@H](C)C(N)=O)NC(=O)[C@H]([C@@H](C)O)NC(=O)[C@H](C(C)C)NC(=O)[C@H](CC(C)C)NC(=O)[C@H](CCN)NC(=O)[C@@H](CC(C)C)NC(=O)[C@H](CCCN)NC1=O` [Compound 1057] ({CH2CO}-[4Pal]Y(Carboxymethyl)DWV[Bip]I[Orn][dL][Dab]LVTCA-NH2; thioether N-14), under setting [1], the IC50 was determined as 0.129 µM.

Take `CCCC[C@@H]1NC(=O)[C@H](CC(N)=O)NC(=O)[C@@H](CC(C)C)NC(=O)[C@H](CN)NC(=O)[C@H](C(C)C)NC(=O)[C@H](Cc2ccc(-c3ccccc3)cc2)NC(=O)[C@H](CC(C)C)NC(=O)[C@H](Cc2c[nH]c3ccccc23)NC(=O)[C@H](CC(=O)O)NC(=O)[C@H](Cc2ccncc2)NC(=O)[C@H](Cc2ccc(OCC(=O)O)cc2)NC(=O)CSC[C@@H](C(=O)NCC(N)=O)NC(=O)[C@H](CO)NC(=O)[C@H](C(C)C)NC1=O` [Compound 1401] ({CH2CO}-Y(Carboxymethyl)[4Pal]DWL[Bip]V[Dap][dL]N[Nle]VSCG-NH2; thioether N-14): the IC50 under setting [1] came out at 0.022 µM.

Turning to `CC(C)C[C@@H]1NC(=O)[C@H](Cc2c[nH]c3ccccc23)NC(=O)[C@H](CC(=O)O)NC(=O)[C@H](Cc2ccc(O)cc2)NC(=O)[C@H](Cc2ccccc2)NC(=O)CSC[C@@H](C(=O)N[C@@H](C)C(N)=O)NC(=O)[C@H](CO)NC(=O)[C@H](C(C)C)NC(=O)[C@H](CC(C)C)NC(=O)[C@H](CC(N)=O)NC(=O)[C@@H](C)NC(=O)[C@H](CCN)NC(=O)[C@H](C(C)C)NC(=O)[C@H](Cc2ccc(-c3ccccc3)cc2)NC1=O` [Compound 1100] ({CH2CO}-FYDWL[Bip]V[Dab][dA]NLVSCA-NH2; thioether N-14), under setting [1], the IC50 came to 0.0414 µM.

Consider `Cc1cccc(C[C@@H]2NC(=O)[C@H](CC(=O)O)NC(=O)[C@H](Cc3ccc(C(=O)O)cc3)NC(=O)[C@H](CN)NC(=O)CSC[C@@H](C(=O)N[C@@H](CCN)C(N)=O)NC(=O)[C@@H](CCN)NC(=O)[C@H](C(C)C)NC(=O)[C@H](CC3CCCCC3)NC(=O)[C@H](CCN)NC(=O)[C@@H](CC(C)C)NC(=O)[C@H](CCCN)NC(=O)[C@H](C(C)C)NC(=O)[C@H](Cc3ccc(-c4ccccc4)cc3)NC(=O)[C@H](C(C)C)NC2=O)c1` [Compound 2029] ({CH2CO}-[Dap][Phe(4-COOH)]D[Phe(3-Me)]V[Bip]V[Orn][dL][Dab][Cha]V[dDab]C[Dab]-NH2; thioether N-14), for which the IC50 under setting [1] is 0.0041 µM.

With `Cc1cccc(C[C@@H]2NC(=O)[C@H](CC(=O)O)NC(=O)[C@H](Cc3ccc(C#N)cc3)NC(=O)[C@H](Cc3ccncc3)NC(=O)CSC[C@@H](C(=O)N[C@@H](CCN)C(N)=O)NC(=O)[C@H](Cc3c[nH]cn3)NC(=O)[C@H](C(C)(C)O)NC(=O)[C@H](CC3CCCCC3)NC(=O)[C@H](CCN)NC(=O)[C@@H](CC(C)C)NC(=O)[C@H](CCCN)NC(=O)[C@H](Cc3ccc(OCC(=O)O)cc3)NC(=O)[C@H](Cc3ccc(-c4ccccc4)cc3)NC(=O)[C@H](Cc3ccc(OCC(=O)O)cc3)NC2=O)c1` [Compound 2675] ({CH2CO}-[4Pal][Phe(4-CN)]D[Phe(3-Me)]Y(Carboxymethyl)[Bip]Y(Carboxymethyl)[Orn][dL][Dab][Cha][Val(3-OH)]HC[Dab]-NH2; thioether N-14), the IC50 under setting [1] was determined as 0.795 µM.

For `CC(C)C[C@H]1NC(=O)[C@H](CCCN)NC(=O)[C@H](Cc2ccc(C(=O)O)cc2)NC(=O)[C@H](Cc2ccc(-c3ccccc3)cc2)NC(=O)[C@H](Cc2ccc(C(=O)O)cc2)NC(=O)[C@H](Cc2cccc(C(F)(F)F)c2)NC(=O)[C@H](CC(=O)O)NC(=O)[C@H](Cc2ccc(C(=O)O)cc2)NC(=O)[C@H](CN2CCOCC2)NC(=O)CSC[C@@H](C(=O)N[C@@H](CCN)C(N)=O)NC(=O)[C@H](CCC(=O)O)NC(=O)[C@H](C(C)C)NC(=O)[C@H](CC2CCCCC2)NC(=O)[C@H](CCN)NC1=O` [Example 2712] ({CH2CO}-[Ala(morpholin-4-yl)][Phe(4-COOH)]D[Phe(3-CF3)][Phe(4-COOH)][Bip][Phe(4-COOH)][Orn][dL][Dab][Cha]VEC[Dab]-NH2; thioether N-14), under setting [1], the IC50 was found to be 0.0028 µM.

Regarding `Cc1cccc(C[C@@H]2NC(=O)[C@H](CC(=O)O)NC(=O)[C@H](Cc3ccncc3)NC(=O)[C@H](Cc3ccc(OCC(=O)O)cc3)NC(=O)CSC[C@@H](C(=O)N[C@@H](C)C(N)=O)NC(=O)[C@H]([C@@H](C)O)NC(=O)[C@H](C(C)C)NC(=O)[C@H](CC3CCCCC3)NC(=O)[C@H](CCN)NC(=O)[C@@H](Cc3ccccc3)NC(=O)[C@H](CCCN)NC(=O)[C@H](CCC(=O)O)NC(=O)[C@H](Cc3ccc(-c4ccccc4)cc3)NC(=O)[C@H](C(C)C)NC2=O)c1` [Compound 1430] ({CH2CO}-Y(Carboxymethyl)[4Pal]D[Phe(3-Me)]V[Bip]E[Orn][dF][Dab][Cha]VTCA-NH2; thioether N-14), under setting [1], the IC50 was found to be 0.0108 µM.

As to `CC(C)C[C@@H]1NC(=O)[C@H](CCN)NC(=O)[C@@H](CC(C)C)NC(=O)[C@H](CN)NC(=O)[C@H](CCCNC(=N)N)NC(=O)[C@H](Cc2ccc(-c3ccccc3)cc2)NC(=O)[C@H](C(C)C)NC(=O)[C@H](Cc2c[nH]c3ccccc23)NC(=O)[C@H](CC(=O)O)NC(=O)[C@H](Cc2ccc(O)cc2)NC(=O)[C@H](CC(N)=O)NC(=O)CSC[C@@H](C(=O)N[C@@H](C)C(N)=O)NC(=O)[C@H]([C@@H](C)O)NC(=O)[C@H](C(C)C)NC1=O` [Compound 1009] ({CH2CO}-NYDWV[Bip]R[Dap][dL][Dab]LVTCA-NH2; thioether N-14), the IC50 under setting [1] was determined as 0.0529 µM.

Consider `CC(C)C[C@@H]1NC(=O)[C@H](CCN)NC(=O)[C@@H](CC(C)C)NC(=O)[C@@H](CN)NC(=O)[C@H](C(C)C)NC(=O)[C@H](Cc2ccc(-c3ccccc3)cc2)NC(=O)[C@H](C(C)C)NC(=O)[C@H](Cc2c[nH]c3ccccc23)NC(=O)[C@H](CC(=O)O)NC(=O)[C@H](Cc2ccc(O)cc2)NC(=O)[C@H](CC(N)=O)NC(=O)CSC[C@@H](C(=O)N[C@@H](C)C(N)=O)NC(=O)[C@H]([C@@H](C)O)NC(=O)[C@H](C(C)C)NC1=O` [Compound 1022] ({CH2CO}-NYDWV[Bip]V[dDap][dL][Dab]LVTCA-NH2; thioether N-14), for which the IC50 under setting [1] came out at 0.0177 µM.

In the case of `CC(C)C[C@@H]1NC(=O)[C@H](Cc2c[nH]c3ccccc23)NC(=O)[C@H](CC(=O)O)NC(=O)[C@H](Cc2ccc(OCC(=O)O)cc2)NC(=O)[C@H](C(C)O)NC(=O)CSC[C@@H](C(=O)N[C@@H](CC(N)=O)C(N)=O)NC(=O)[C@H](CO)NC(=O)[C@H](C(C)C)NC(=O)[C@H](CC2CCCCC2)NC(=O)[C@H](CCN)NC(=O)[C@@H](CC(C)C)NC(=O)[C@H](CCCN)NC(=O)[C@H](C(C)O)NC(=O)[C@H](Cc2ccc(-c3ccccc3)cc2)NC1=O` (stereo partly drawn) [Compound 2559] ({CH2CO}-[Thr(3ξ)]Y(Carboxymethyl)DWL[Bip][Thr(3ξ)][Orn][dL][Dab][Cha]VSCN-NH2; thioether N-14), under setting [1], the IC50 was determined as 0.0248 µM.

On to `CC[C@H](C)[C@@H]1NC(=O)[C@H](Cc2ccc(-c3ccccc3)cc2)NC(=O)[C@H](C(C)C)NC(=O)[C@H](Cc2cccc(C)c2)NC(=O)[C@H](CC(=O)O)NC(=O)[C@H](Cc2ccc(C(=O)O)cc2)NC(=O)[C@H](Cc2ccncc2)NC(=O)CSC[C@@H](C(=O)N[C@@H](C)C(N)=O)NC(=O)[C@H]([C@@H](C)O)NC(=O)[C@H](C(C)C)NC(=O)[C@H](CC(C)C)NC(=O)[C@H](CCN)NC(=O)[C@@H](CC(C)C)NC(=O)[C@H](CCCN)NC1=O` [Compound 1180], for which the IC50 under setting [1] came to 0.0089 µM.

For `CC(C)C[C@@H]1NC(=O)[C@H](Cc2c[nH]c3ccccc23)NC(=O)[C@H](CC(=O)O)NC(=O)[C@H](Cc2ccc(O)cc2)NC(=O)[C@H](Cc2ccccc2)NC(=O)CSC[C@@H](C(=O)N[C@@H](C)C(N)=O)NC(=O)[C@H]([C@@H](C)O)NC(=O)[C@H](C(C)C)NC(=O)[C@H](CC(C)C)NC(=O)[C@H](CC(N)=O)NC(=O)[C@@H](CC(C)C)NC(=O)[C@H](CCN)NC(=O)[C@H](C(C)C)NC(=O)[C@H](Cc2ccc(-c3ccccc3)cc2)NC1=O` [Compound 1058] ({CH2CO}-FYDWL[Bip]V[Dab][dL]NLVTCA-NH2; thioether N-14), under setting [1], the IC50 was determined as 0.0181 µM.

Regarding `CC(C)C[C@@H]1NC(=O)[C@H](Cc2c[nH]c3ccccc23)NC(=O)[C@H](CC(=O)O)NC(=O)[C@H](Cc2ccc(C(=O)O)cc2)NC(=O)[C@H](Cc2ccc(OCC(=O)O)cc2)NC(=O)CSC[C@@H](C(=O)NCC(N)=O)NC(=O)[C@H](CO)NC(=O)[C@H](C(C)C)NC(=O)[C@H](CC2CCCCC2)NC(=O)[C@H](CC(N)=O)NC(=O)[C@@H](CC(C)C)NC(=O)[C@H](CN)NC(=O)[C@H](C(C)C)NC(=O)[C@H](Cc2ccc(-c3ccccc3)cc2)NC1=O` [Compound 1393] ({CH2CO}-Y(Carboxymethyl)[Phe(4-COOH)]DWL[Bip]V[Dap][dL]N[Cha]VSCG-NH2; thioether N-14), the IC50 under setting [1] was 0.0253 µM.

Compound `CC(C)C[C@H]1NC(=O)[C@H](CCCN)NC(=O)[C@H](CCCCN)NC(=O)[C@H](Cc2ccc(-c3ccccc3)cc2)NC(=O)[C@H](C(C)C)NC(=O)[C@H](Cc2c[nH]c3ccccc23)NC(=O)[C@H](CC(=O)O)NC(=O)[C@H](Cc2ccc(OCC(=O)O)cc2)NC(=O)[C@H](Cc2ccncc2)NC(=O)CSC[C@@H](C(=O)N[C@@H](C)C(N)=O)NC(=O)[C@H]([C@@H](C)O)NC(=O)[C@H](C(C)C)NC(=O)[C@H](CC2CCCCC2)NC(=O)[C@H](CCN)NC1=O` [Compound 1373] showed an IC50 (Jurkat HPD1_PDL1 IC50, Jurkat-PD-1 cells) of 0.0111 µM.

Regarding `CCC(C)[C@@H]1NC(=O)[C@H](Cc2ccc(-c3ccccc3)cc2)NC(=O)[C@H](C(C)C)NC(=O)[C@H](Cc2cc(OC)ccc2F)NC(=O)[C@H](CC(=O)O)NC(=O)[C@H](Cc2ccc(OCC(=O)O)cc2)NC(=O)[C@H](CN)NC(=O)CSC[C@@H](C(=O)N[C@@H](C)C(N)=O)NC(=O)[C@H]([C@@H](C)O)NC(=O)[C@H](C(C)C)NC(=O)[C@H](CC2CCCCC2)NC(=O)[C@H](CCN)NC(=O)[C@@H](CC(C)C)NC(=O)[C@H](CCCN)NC1=O` (stereo partly drawn) [Compound 2248], under setting [1], the IC50 stood at 0.0138 µM.
